Data as given in ChEMBL document CHEMBL1201862, “PubChem BioAssay data set” (2004).
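Test compounds were applied to cells in 96-well plates for 48 hours at 5 doses. GI50 = concentration required for 50% inhibition of growth.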 Activity calls are given as the source filed them. Cut-off read from the data, not from the text of the source: active = GI50 up to about 1.1 µM and inactive = higher.

Experiments:
Assay in all cases: DTP human tumour cell line panel, 48 h
786-0 = tested on: 786-0
HOP-62 = tested on: HOP-62
SF-539 = tested on: SF-539
HT-29 = tested on: HT-29
MDA-N = tested on: MDA-N
MDA-MB-231 = tested on: MDA-MB-231
MDA-MB-435 = tested on: MDA-MB-435
MOLT-4 = tested on: MOLT-4
UO-31 = tested on: UO-31
T47D = tested on: T47D
SK-MEL-5 = tested on: SK-MEL-5
NCI/ADR-RES = tested on: NCI/ADR-RES
Hs-578T = tested on: Hs-578T
LOX IMVI = tested on: LOX IMVI
SR = tested on: SR
DLD-1 = tested on: DLD-1
KM-20L2 = tested on: KM-20L2
M19-MEL = tested on: M19-MEL
DMS-273 = tested on: DMS-273

SMILES	GI50 (786-0)	GI50 (HOP-62)	GI50 (SF-539)	GI50 (HT-29)	GI50 (MDA-N)	GI50 (MDA-MB-231)	GI50 (MDA-MB-435)	GI50 (MOLT-4)	GI50 (UO-31)	GI50 (T47D)	GI50 (SK-MEL-5)	GI50 (NCI/ADR-RES)	GI50 (Hs-578T)	GI50 (LOX IMVI)	GI50 (SR)	GI50 (DLD-1)	GI50 (KM-20L2)	GI50 (M19-MEL)	GI50 (DMS-273)
O=S1(=O)OCCOS(=O)(=O)C1Cc1cccc2ccccc12	21.4 µM (inactive)	23.9 µM (inactive)	22.3 µM (inactive)	25.5 µM (inactive)	21.2 µM (inactive)	23 µM (inactive)	16.2 µM (inactive)	23.7 µM (inactive)	23.2 µM (inactive)	39.4 µM (inactive)	14.4 µM (inactive)	20.3 µM (inactive)	29.9 µM (inactive)	20.5 µM (inactive)	25.2 µM (inactive)	–	–	–	–
CC1=C(SCCO)C(=O)c2ccccc2C1=O	–	15.9 µM (inactive)	12.1 µM (inactive)	19.3 µM (inactive)	5.09 µM (inactive)	13.7 µM (inactive)	11.6 µM (inactive)	0.324 µM (active)	8.63 µM (inactive)	3.21 µM (inactive)	13.3 µM (inactive)	14.3 µM (inactive)	12.2 µM (inactive)	12.1 µM (inactive)	3.21 µM (inactive)	–	–	–	–
Nc1n[nH]c2c1Cc1c(n(Cc3ccc(Cl)cc3)c3ccccc13)C(=O)N2	–	15 µM (inactive)	15.4 µM (inactive)	16.1 µM (inactive)	2.78 µM (inactive)	14.4 µM (inactive)	3.71 µM (inactive)	5.66 µM (inactive)	4.82 µM (inactive)	12.3 µM (inactive)	3.69 µM (inactive)	19.9 µM (inactive)	13.3 µM (inactive)	9.79 µM (inactive)	6.11 µM (inactive)	–	–	–	–
O=Cc1ccc2c(c1I)OCO2	> 100 µM (inactive)	> 100 µM (inactive)	> 100 µM (inactive)	> 100 µM (inactive)	–	–	–	> 100 µM (inactive)	> 100 µM (inactive)	–	> 100 µM (inactive)	–	–	> 100 µM (inactive)	> 100 µM (inactive)	> 100 µM (inactive)	> 100 µM (inactive)	> 100 µM (inactive)	> 100 µM (inactive)
O=C1C=CC=C/C1=C1\N=C(c2ccccc2OCC(=O)c2ccccc2)SS1	> 100 µM (inactive)	39.4 µM (inactive)	86.7 µM (inactive)	> 100 µM (inactive)	> 100 µM (inactive)	> 100 µM (inactive)	> 100 µM (inactive)	22.6 µM (inactive)	> 100 µM (inactive)	–	–	> 100 µM (inactive)	26.9 µM (inactive)	> 100 µM (inactive)	–	–	–	–	–
O=C1OC(CN2CCOCC2)CN1/N=C/c1ccc([N+](=O)[O-])o1 (stereo not drawn) [FURALTADONE]	62.7 µM (inactive)	61.9 µM (inactive)	42.1 µM (inactive)	32.4 µM (inactive)	–	33.3 µM (inactive)	18 µM (inactive)	51.6 µM (inactive)	97.1 µM (inactive)	28.8 µM (inactive)	23.6 µM (inactive)	35.4 µM (inactive)	54.6 µM (inactive)	21.7 µM (inactive)	36.8 µM (inactive)	–	–	–	–
CSCCCNC(=O)c1csc(-c2csc(CCNC(=O)CNC(=O)CNC(=O)CNC(=O)OC(C)(C)C)n2)n1	> 100 µM (inactive)	> 100 µM (inactive)	> 100 µM (inactive)	> 100 µM (inactive)	> 100 µM (inactive)	> 100 µM (inactive)	> 100 µM (inactive)	> 100 µM (inactive)	> 100 µM (inactive)	–	> 100 µM (inactive)	> 100 µM (inactive)	> 100 µM (inactive)	> 100 µM (inactive)	–	–	–	–	–
COc1ccc2nc3c(C)cc4ccccc4n3c2c1	48 µM (inactive)	75.3 µM (inactive)	86.9 µM (inactive)	55 µM (inactive)	> 100 µM (inactive)	–	> 100 µM (inactive)	23 µM (inactive)	52 µM (inactive)	> 100 µM (inactive)	57.9 µM (inactive)	> 100 µM (inactive)	18 µM (inactive)	–	50.2 µM (inactive)	–	–	–	–
CC(=O)OCCOCn1cc(C=O)c2ccccc21	> 100 µM (inactive)	> 100 µM (inactive)	> 100 µM (inactive)	> 100 µM (inactive)	> 100 µM (inactive)	> 100 µM (inactive)	> 100 µM (inactive)	> 100 µM (inactive)	> 100 µM (inactive)	> 100 µM (inactive)	75 µM (inactive)	> 100 µM (inactive)	> 100 µM (inactive)	> 100 µM (inactive)	> 100 µM (inactive)	–	–	–	–
CC(C)(C)c1cc(C(=O)/C=C/c2ccc3c(c2)OCO3)cc(C(C)(C)C)c1O	6.62 µM (inactive)	19.4 µM (inactive)	6.44 µM (inactive)	5.73 µM (inactive)	1.98 µM (inactive)	8.11 µM (inactive)	2.26 µM (inactive)	5.6 µM (inactive)	6.38 µM (inactive)	2.55 µM (inactive)	4.2 µM (inactive)	4.29 µM (inactive)	6.93 µM (inactive)	8.32 µM (inactive)	2.18 µM (inactive)	–	–	–	–
CC(=O)/N=C1\N/C(=C/c2cc([N+](=O)[O-])ccc2O)CN1C	> 100 µM (inactive)	> 100 µM (inactive)	> 100 µM (inactive)	> 100 µM (inactive)	> 100 µM (inactive)	> 100 µM (inactive)	> 100 µM (inactive)	6.31 µM (inactive)	> 100 µM (inactive)	> 100 µM (inactive)	> 100 µM (inactive)	> 100 µM (inactive)	–	> 100 µM (inactive)	–	–	–	–	–
CCOc1ncn(-c2ccc(NC(=S)Nc3cccc(O)c3)cc2)n1	–	> 100 µM (inactive)	> 100 µM (inactive)	> 100 µM (inactive)	> 100 µM (inactive)	> 100 µM (inactive)	> 100 µM (inactive)	> 100 µM (inactive)	> 100 µM (inactive)	> 100 µM (inactive)	> 100 µM (inactive)	–	–	> 100 µM (inactive)	> 100 µM (inactive)	–	–	–	–
CCOC(=O)CCc1c(C)c2c(O)cc(O)cc2oc1=O	–	> 100 µM (inactive)	> 100 µM (inactive)	> 100 µM (inactive)	–	–	–	> 54.6 µM (inactive)	> 87.1 µM (inactive)	–	> 100 µM (inactive)	> 100 µM (inactive)	–	> 100 µM (inactive)	–	> 100 µM (inactive)	> 100 µM (inactive)	> 100 µM (inactive)	> 100 µM (inactive)
COc1cc(OC)cc(Oc2nc3cc(F)c(F)cc3nc2-c2ccccc2)c1	> 100 µM (inactive)	> 100 µM (inactive)	> 100 µM (inactive)	> 100 µM (inactive)	> 100 µM (inactive)	–	> 100 µM (inactive)	> 100 µM (inactive)	> 100 µM (inactive)	> 100 µM (inactive)	> 100 µM (inactive)	> 100 µM (inactive)	> 100 µM (inactive)	> 100 µM (inactive)	> 100 µM (inactive)	–	–	–	–
CN1C(=O)C(C#N)C2C[C@@]1(C)Oc1ccccc12 (stereo partly drawn)	> 100 µM (inactive)	> 100 µM (inactive)	–	> 100 µM (inactive)	> 100 µM (inactive)	> 100 µM (inactive)	> 100 µM (inactive)	7.29 µM (inactive)	> 100 µM (inactive)	–	> 100 µM (inactive)	> 100 µM (inactive)	> 100 µM (inactive)	> 100 µM (inactive)	–	–	–	–	–
CC(=O)c1ccc2c(c1)oc(=O)n2CCN1CCCCC1	> 100 µM (inactive)	> 100 µM (inactive)	> 100 µM (inactive)	> 100 µM (inactive)	> 100 µM (inactive)	> 100 µM (inactive)	> 100 µM (inactive)	> 100 µM (inactive)	–	–	> 100 µM (inactive)	> 100 µM (inactive)	93.5 µM (inactive)	> 100 µM (inactive)	> 100 µM (inactive)	–	–	–	–
CCCCC(CC)C(=O)Oc1ccc(C(=O)c2ccccc2)c(O)c1 (stereo not drawn)	–	55 µM (inactive)	5.46 µM (inactive)	55.7 µM (inactive)	41.4 µM (inactive)	> 100 µM (inactive)	35.8 µM (inactive)	24.9 µM (inactive)	20.9 µM (inactive)	45.7 µM (inactive)	39.6 µM (inactive)	35.9 µM (inactive)	20.6 µM (inactive)	44.6 µM (inactive)	–	–	–	–	–
N#Cc1c(Cl)cc(Cl)n2c1nc1ccccc12	2.86 µM (inactive)	22.9 µM (inactive)	4.47 µM (inactive)	7.55 µM (inactive)	10.1 µM (inactive)	6.49 µM (inactive)	11.5 µM (inactive)	3.21 µM (inactive)	3.63 µM (inactive)	5.64 µM (inactive)	14.3 µM (inactive)	12.6 µM (inactive)	11 µM (inactive)	6.84 µM (inactive)	5.18 µM (inactive)	–	–	–	–
N#Cc1c(N)c2c(c(-c3ccccc3)c1-c1ccccc1)C(=O)N(NC(=S)Nc1ccccc1)C2=O	> 100 µM (inactive)	–	89.9 µM (inactive)	–	–	> 100 µM (inactive)	> 100 µM (inactive)	46.8 µM (inactive)	34.1 µM (inactive)	48.2 µM (inactive)	43.1 µM (inactive)	59.3 µM (inactive)	39.4 µM (inactive)	90.2 µM (inactive)	68.7 µM (inactive)	–	–	–	–
CCOC(=O)NC(Nc1ccc(C)cc1)(C(F)(F)F)C(F)(F)F	> 100 µM (inactive)	> 100 µM (inactive)	> 100 µM (inactive)	> 100 µM (inactive)	> 100 µM (inactive)	> 100 µM (inactive)	> 100 µM (inactive)	> 100 µM (inactive)	> 100 µM (inactive)	> 100 µM (inactive)	> 100 µM (inactive)	> 100 µM (inactive)	> 100 µM (inactive)	> 100 µM (inactive)	–	–	–	–	–
